From patent US20060110790A1, “Expression system for large functional proteins” (priority 2002, published 2006)

Molecular target: T1, N-half co-expressed with the K1978M C-half mutant of ABCR (Homo sapiens, UniProt P78363, K1978M)
T1 construct: The cDNAs coding for the N-half (amino acids 1-1325) and C-half (amino acids 1326-2273) of ABCR; made in house
T1 sequence (P78363 1-1325): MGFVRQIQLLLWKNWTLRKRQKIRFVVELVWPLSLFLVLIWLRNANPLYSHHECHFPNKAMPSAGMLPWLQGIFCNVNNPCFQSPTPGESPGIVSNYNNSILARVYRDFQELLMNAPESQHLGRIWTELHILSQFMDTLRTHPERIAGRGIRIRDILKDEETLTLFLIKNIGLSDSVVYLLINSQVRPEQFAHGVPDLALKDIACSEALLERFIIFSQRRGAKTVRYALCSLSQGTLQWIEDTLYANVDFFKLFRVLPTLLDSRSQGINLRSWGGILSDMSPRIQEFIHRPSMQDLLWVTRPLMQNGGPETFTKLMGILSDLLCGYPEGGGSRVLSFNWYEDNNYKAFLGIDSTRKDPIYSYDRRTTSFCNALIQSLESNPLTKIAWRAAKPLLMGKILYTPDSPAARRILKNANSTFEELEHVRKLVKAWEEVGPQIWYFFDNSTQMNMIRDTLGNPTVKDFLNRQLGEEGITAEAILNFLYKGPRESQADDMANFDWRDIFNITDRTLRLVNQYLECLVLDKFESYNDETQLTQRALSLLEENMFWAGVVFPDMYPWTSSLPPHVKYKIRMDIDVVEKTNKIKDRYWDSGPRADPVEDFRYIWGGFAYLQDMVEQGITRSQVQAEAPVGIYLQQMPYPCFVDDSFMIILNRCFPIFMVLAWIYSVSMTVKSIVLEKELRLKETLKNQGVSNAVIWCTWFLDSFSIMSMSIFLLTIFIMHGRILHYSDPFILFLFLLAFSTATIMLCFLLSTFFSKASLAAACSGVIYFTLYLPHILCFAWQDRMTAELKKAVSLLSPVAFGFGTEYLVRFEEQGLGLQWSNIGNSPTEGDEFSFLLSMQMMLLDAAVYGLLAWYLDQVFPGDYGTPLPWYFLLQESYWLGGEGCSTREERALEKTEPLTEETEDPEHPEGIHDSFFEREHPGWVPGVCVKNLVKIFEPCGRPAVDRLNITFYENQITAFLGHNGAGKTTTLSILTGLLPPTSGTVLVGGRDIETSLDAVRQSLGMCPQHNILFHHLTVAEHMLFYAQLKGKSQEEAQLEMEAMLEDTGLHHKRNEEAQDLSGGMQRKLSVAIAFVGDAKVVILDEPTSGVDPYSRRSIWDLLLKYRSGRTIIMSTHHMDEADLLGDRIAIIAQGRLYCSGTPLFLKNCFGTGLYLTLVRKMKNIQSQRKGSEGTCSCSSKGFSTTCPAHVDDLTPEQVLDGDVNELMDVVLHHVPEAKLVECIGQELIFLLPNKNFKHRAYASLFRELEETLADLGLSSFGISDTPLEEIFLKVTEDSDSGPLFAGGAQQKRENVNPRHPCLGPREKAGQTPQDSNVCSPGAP
T1 sequence (P78363 1326-2273 K1978M): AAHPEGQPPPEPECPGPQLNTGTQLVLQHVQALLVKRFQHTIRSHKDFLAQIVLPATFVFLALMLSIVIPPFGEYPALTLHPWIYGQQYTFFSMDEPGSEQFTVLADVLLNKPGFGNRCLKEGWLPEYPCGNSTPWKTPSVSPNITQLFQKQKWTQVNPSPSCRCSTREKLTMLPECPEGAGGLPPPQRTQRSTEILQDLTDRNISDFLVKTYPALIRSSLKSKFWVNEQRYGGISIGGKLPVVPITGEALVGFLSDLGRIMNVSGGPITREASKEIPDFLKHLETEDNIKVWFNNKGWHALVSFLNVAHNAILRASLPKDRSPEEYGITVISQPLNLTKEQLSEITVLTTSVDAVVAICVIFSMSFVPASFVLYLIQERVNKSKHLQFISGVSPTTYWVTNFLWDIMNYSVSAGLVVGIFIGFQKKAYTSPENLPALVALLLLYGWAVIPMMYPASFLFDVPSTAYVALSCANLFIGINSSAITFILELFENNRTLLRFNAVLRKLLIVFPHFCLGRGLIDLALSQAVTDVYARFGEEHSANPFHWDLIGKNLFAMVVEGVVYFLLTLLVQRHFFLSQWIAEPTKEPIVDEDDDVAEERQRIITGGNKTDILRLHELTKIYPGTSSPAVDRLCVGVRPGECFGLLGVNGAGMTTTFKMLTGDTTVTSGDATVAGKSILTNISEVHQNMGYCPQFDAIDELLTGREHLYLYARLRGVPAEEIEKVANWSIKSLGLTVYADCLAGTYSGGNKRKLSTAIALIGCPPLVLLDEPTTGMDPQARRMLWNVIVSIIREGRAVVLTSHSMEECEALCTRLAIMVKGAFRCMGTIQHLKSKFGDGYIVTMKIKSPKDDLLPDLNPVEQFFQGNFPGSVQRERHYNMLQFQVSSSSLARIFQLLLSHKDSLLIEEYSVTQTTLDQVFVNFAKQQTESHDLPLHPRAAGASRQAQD
Experiment: ATPase activity of Walker A lysine-to-methionine mutants
Assay type: biochemical
Details: 50 μM all-trans retinal
Procedure: FIG. 4. Lysine to methionine Walker A mutations in ABCR abolish ATP hydrolysis but not ATP binding. A. ATPase activity was measured in the absence (white bars) or presence of 50 μM all-trans retinal (grey bars). WT, wild-type; K969M in NBD1; K1978M in NBD2; MM, K969M/K1978M double mutant; NCM, N-half co-expressed with C-half containing a K1978M mutation. B. ATP photoaffinity labeling was carried out by irradiating membranes from COS-1 cells expressing wild-type (WT), K969M, K1978M, or K969M/K1978M double mutant (MM) with 3 μM 8-azido-[α-^32P]ATp. The labeled protein was isolated with Rim3F4-Sepharose and separated on SDS gels. Left panel: gel stained with Coomassie blue. Right panel: corresponding ^32P labeling obtained with a phosphorimager. All mutant proteins were labeled with 8-azido-[α-^32P]ATP, but the double mutant bound less nucleotide.
ATPase activity was measured as described previously (Ahn, J., Wong, J. T., and Molday, R. S. (2000) J Biol Chem 275(27), 20399-405) using 50 μM [α^32P]ATP and thin layer chromatography. The all-trans retinal concentration was determined spectrophotometrically (λ383 nm=42.88 mM^−1 cm^−1). Protein concentration was estimated from the eluate before reconstitution by laser densitometry of Coomassie blue stained gels using bovine serum albumin as a standard. […]

## CC1=C(/C=C/C(C)=C/C=C/C(C)=C/C=O)C(C)(C)CCC1 [all-trans retinal]
  retinal-stimulated ATPase activity: abolished
